Earlier results, collected in US20190346442A1, “IMPROVED HLA EPITOPE PREDICTION” (The Broad Institute, Inc., priority 2016, published 2019).

Legend:
[1] = tested on: ovarian carcinoma patients; conditions: poly-ICLC in combination with NY-ESO-1 peptide vaccine, in addition to Montanide; phase 1
healthy human volunteers = conditions: 8 volunteers, one single s.c. administration, versus 4 subjects receiving placebo; whole blood
[2] = tested on: advanced hormone refractory prostate cancer patients; conditions: personalized vaccination combined with a low dose of estramustine

## Polyinosinic-Polycytidylic Acid-poly-L-lysine Carboxymethylcellulose [poly-ICLC]
[1]
  patients showing induction of CD4+ and CD8+ T cell, as well as antibody responses to the peptide: > 90%
Healthy human volunteers
  differential expression of genes versus placebo: up to 212 genes

## C[C@]12CC[C@@H]3c4ccc(OC(=O)N(CCCl)CCCl)cc4CC[C@H]3[C@@H]1CC[C@@H]2O [estramustine]
[2]
  patients with >50% decrease in serum prostate specific antigen (PSA): 54%
